The target of test [1] is T1, human dopamine D2 receptor (Homo sapiens, UniProt P14416).
T1 construct: expressed in transfected cells
The experiment in a line: Stimulating activities of human dopamine D2 receptor, [35S]GTPγS binding to hD2R#7 (HEK293) membrane homogenates. It is filed as biochemical. The conditions noted are these: [35S]GTPγS binding, membrane homogenates, mean value (n=2); read-out: EC50. On the procedure: Identification Test of Stimulating Activities on Human Dopamine D2 Receptor
The cells, which were grown to confluence in 150 mm dishes (IWAKI), were harvested with isotonic buffer (50 mM Tris (Sigma), 2 mM ethylenediamine-tetraacetic acid (Invitrogen), and 125 mM sodium chloride (Wako Pure Chemicals), pH 7.4) and centrifuged at 1880×g and 4° C. for 10 minutes, and the cell pellets were then suspended in isotonic buffer. After being subjected to one cycle of freezing and thawing, the cells were centrifuged at 1880×g and 4° C. for 10 minutes, and the cell pellets were suspended in isotonic buffer. The cells were centrifuged at 1880×g and 4° C. for 10 minutes, and the cell pellets were suspended in isotonic buffer and homogenate buffer (10 mM sodium bicarbonate (Nacalai) and 5 mM ethylenediamine-tetraacetic acid, pH 7.5). The volume ratio of isotonic-to-homogenate buffer was 2. The cells were sonicated and centrifuged at 1880×g and 4° C. for 10 minutes, and the supernatants were ultracentrifuged at 80000×g and 4° C. for 30 minutes. The final cell pellets were suspended in homogenate buffer containing protease inhibitor cocktail (Nacalai) and stored at −80° C. until use. The protein concentration was determined using BCA Protein Assay Kit (Pierce) in accordance with the manufacturer's instructions.
The stimulating activities of human dopamine D2 receptor was determined by measuring the binding potential of [^35S]-guanosine 5′-[gamma-thio]triphosphate ([^35S]GTPγS, PerkinElmer) according to the method described by Newman-Tancredi A. et al. (Naunyn-Schmiedeberg's Arch Pharmacol, 1999, vol. 359, pp. 447-453) with a minor modification. Test compounds and dopamine hydrochloride (Fluka) as positive control were dissolved in dimethyl sulfoxide (CARLBIOCHEM), resulting in 30 mM. The both compounds were diluted with assay buffer (50 mM Tris, 100 mM sodium chloride, 5 mM magnesium chloride (Nacalai), 1 mM ethylenediamine-tetraacetic acid, 1 mM dithiothreitol (Wako Pure Chemicals), 10 μM guanosine diphosphate (Wako Pure Chemicals) and 0.5% bovine serum albumin (Sigma), pH 7.4) to a final concentration of 100 pM (only test compounds), 1 nM, 10 nM, 100 nM, 1 μM, 10 μM and 100 μM (only dopamine hydrochloride). The above membrane homogenates and [^35S]GTPγS were diluted with assay buffer to a final concentration of 0.06 mg/mL and 0.6 nM, respectively. The serial diluted compounds (50 μL), the diluted membrane homogenates (50 μL) and the diluted [^35S]GTPγS (50 μL) were mixed on multi-screen 96-well plate (Millipore) and shaken lightly at room temperature for 60 minutes. The reaction was terminated by vacuum filtration with three times washes of ice-cold wash buffer (50 mM Tris, 100 mM sodium chloride, 5 mM magnesium chloride, and 1 mM ethylenediamine-tetraacetic acid, pH 7.4). After drying the bottoms of the plate at 60° C., MicroScinti-40 (PerkinElmer) (30 μL) was added in the plate. The tops of the plate were sealed by TopSeal-A (PerkinElmer), and the radioactivity was determined in a TopCount NXT (registered mark)(PerkinElmer) after shaking lightly for 5-10 minutes. The data was analyzed by nonlinear regression and sigmoidal dose-response curve fitting using GraphPad PRISM 4.0 (GraphPad Software), and values of EC50 (concentration of the compound producing half the maximal effect of the compound) were calculated. The data was presented as mean value (n=2).
(GTPγS is a poorly hydrolysed GTP analogue; its binding reports G protein activation.)

Test [2] has as its target T2, human serotonin 5-HT2B receptor (Homo sapiens, UniProt P41595).
T2 construct: expressed in transfected cells; host or cells: HEK293 (transient transfection)
The test is described as follows: Stimulating activities of human serotonin 5-HT2B receptor, intracellular calcium in forced expression HEK293 cells. The conditions noted are these: intracellular calcium concentration, mean value (n=2). It is filed as cell-based. The procedure:
Identification Test of Stimulating Activities on Human Serotonin 5-HT2B Receptor
Mostly confluent HEK293 cells were washed with PBS, followed by exfoliation with 0.05% trypsin-EDTA and the cells were suspended in D-MEM liquid medium (phenol red-free, low glucose, pyruvic acid were contained) containing fetal bovine serum (final concentration: 10%) and GlutaMax (registered mark) I (final concentration: 2 mM). The suspension was scattered at 5×10^4 cells/100 μL/well on poly-D-lysine-coated 96-well microplate (BD BioCoat (registered mark)). The scattered cells were cultured in 5% CO2 incubator at 37° C. Human serotonin 5-HT2B receptor expression plasmid was transfected in that cells according to the procedure seeing below.
Human serotonin 5-HT2B receptor expression plasmid and Lipofectamine (registered mark) 2000 (Invitrogen) were diluted to 0.008 g/L and 0.016 g/L each other with OPTI-MEM (registered mark) I Reduced-Serum Medium and incubated at room temperature. After incubation, the human serotonin 5-HT2B receptor expression plasmid-diluted liquid and Lipofectamine (registered mark) 2000-diluted liquid were mixed at an equal volume and incubated at room temperature to form a complex. The complex was dispensed at 50 μL/well on the cells prepared above. The cells were incubated in 5% CO2 incubator at 37° C. for 2 days. After incubation, the cells were used as human serotonin 5-HT2B receptor forced expression cells for measurement of intracellular calcium concentration.
The stimulating activities of human serotonin 5-HT2B receptor was determined by measuring of intracellular calcium concentration. The 30 mM dimethyl sulfoxide (DMSO) solution contained test compounds or serotonin hydrochloride (Sigma) as positive control, was diluted with assay buffer ((HBSS), 20 mM HEPES, 1.3 mM calcium chloride, 0.5 mM magnesium chloride and 0.4 mM magnesium sulfate were contained, pH7.4) to appropriate concentration.
The forced expression cells were washed with assay buffer, and 100 μL/well of fluorescent calcium indicator (Fluo-4 NW Calcium Assay Kit) was added and incubated in 5% CO2 incubator at 37° C. After incubation, 50 μL/well of each test compound was added, and the concentration of intracellular calcium was measured as fluorescent signal with FlexStation (registered mark) II (Molecular Devices). The data was analyzed by nonlinear regression and sigmoidal dose-response curve fitting using GraphPad PRISM 4.0, and values of EC50 (concentration of the compound producing half the maximal effect of the compound) were calculated. The data was presented as mean value (n=2).

Test [3] concerns unilateral 6-hydroxydopamine-lesioned hemi-Parkisonian rats. The experiment in a line: Contralateral rotational behavior in unilateral 6-hydroxydopamine-lesioned hemi-parkinsonian rats. It is filed as in vivo, rat. The conditions noted are these: orally 10 mg/kg, mean value; for Total number of rotations: contralateral rotations up to 24 hours after administration; for Duration: measured up to 24 hours after administration, duration of rotational response. On the procedure:
6-OHDA was dissolved at 2 mg/mL in a physiolosical saline solution containing 0.2% L-ascorbic acid. Desipramine was dissolved at 10 mg/mL in a physiolosical saline solution in a hot-water bath. Apomorphine was dissolved at 0.1 mg/mL in a physiolosical saline solution. Ropinirole was dissolved in distilled water. Test compounds were dissolved in a solution containing 2% DMA, 100 or 200 mol % hydrochloric acid, and 98% of a 0.5% methyl cellulose solution. […] (Eur J Pharmacol, 2000, vol. 408, P. 249-255) with a minor modification. Male Sprague-Dawley rats (6-weeks-old, Charles River Laboratories Japan Inc.) were anaesthetized with intraperitoneal somnopentyl (45 mg/kg) injection and placed in a stereotaxic frame (Narishige). In order to prevent 6-OHDA-induced damage of noradrenergic neurons, desipramine (25 mg/kg) was intraperitoneally injected 30 minutes before the 6-OHDA injection. After the bregma identification via a middle calvarial incision, the skull was drilled using a dental drill at the site of 6-OHDA injection. The lesion was made by injecting 6-OHDA (8 μg in 4 μL at a speed of 1 μL/minute) unilaterally into the left medial forebrain bundle by using a injection cannula (30 gauge needle) connected to a microsyringe (Hamilton) (the lesion coordinates; A/P −2.5 mm, L/M −1.8 mm, and V/D −8.0 mm, from the bregma point and surface of the skull). The cannula was carefully removed from the animal after keeping placed on the lesion site for 5 minutes. The skull was filled its hole with dental cement, disinfected, and the scalp incision was surgically sutured. Animals recovered from anesthesia were housed as usual until the day of the experiment. Three weeks after the lesion, rats were tested on the basis of their contralateral rotational behavior (single rotation was defined as a 360° turn) in response to 0.1 mg/kg apomorphine given subcutaneously. For behavioral observation, rats were placed in plastic cylinders of a diameter of 30 cm, and its contralateral rotational behaviors were videotaped and quantified by rat-rotation auto counting system R-RACS (Kissei Wellcom). On the experimental day, animals were fasted overnight, and test compounds were orally administrated at doses of 10 mg/kg. The drug potency was measured until up to 24 hours after administration as the number of contralateral rotation. […] Total number of rotations and the duration of the response in experimental period were presented as mean value. As comparative example, ropinirole as non-ergot dopamine D2 receptor agonist, was examined in a similar fashion.

As a reminder, the EC50 is the concentration at which the effect is half-maximal.

T1 sequence (P14416 whole entry): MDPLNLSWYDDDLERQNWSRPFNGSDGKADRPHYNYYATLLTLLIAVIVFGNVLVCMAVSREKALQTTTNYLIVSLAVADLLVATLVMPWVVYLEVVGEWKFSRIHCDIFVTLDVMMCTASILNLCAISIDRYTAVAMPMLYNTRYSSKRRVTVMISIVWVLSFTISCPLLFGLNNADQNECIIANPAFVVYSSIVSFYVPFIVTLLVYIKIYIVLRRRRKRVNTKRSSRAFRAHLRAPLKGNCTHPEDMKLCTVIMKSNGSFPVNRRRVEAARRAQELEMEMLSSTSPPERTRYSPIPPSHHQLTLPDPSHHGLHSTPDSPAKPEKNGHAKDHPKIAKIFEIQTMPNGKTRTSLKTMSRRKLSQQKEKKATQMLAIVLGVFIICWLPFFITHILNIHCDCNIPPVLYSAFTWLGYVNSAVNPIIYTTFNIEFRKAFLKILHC
T2 sequence (P41595 whole entry): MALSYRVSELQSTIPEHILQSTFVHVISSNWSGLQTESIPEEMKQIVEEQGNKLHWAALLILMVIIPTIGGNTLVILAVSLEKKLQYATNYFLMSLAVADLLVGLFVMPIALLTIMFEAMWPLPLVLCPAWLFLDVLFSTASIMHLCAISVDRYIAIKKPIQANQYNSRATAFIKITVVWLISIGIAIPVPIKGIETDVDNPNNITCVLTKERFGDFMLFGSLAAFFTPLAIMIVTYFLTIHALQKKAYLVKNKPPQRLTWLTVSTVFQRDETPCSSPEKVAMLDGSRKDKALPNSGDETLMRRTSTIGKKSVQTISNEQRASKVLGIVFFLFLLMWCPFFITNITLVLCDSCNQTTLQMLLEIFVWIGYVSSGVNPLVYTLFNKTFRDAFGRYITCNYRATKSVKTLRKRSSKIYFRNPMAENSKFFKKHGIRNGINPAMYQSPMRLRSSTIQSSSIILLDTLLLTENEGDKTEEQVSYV

In the case of `CCCN1C[C@@H](NC(=O)N(CC)CCN(C)C)C[C@@H]2Cc3nc(N)ncc3C[C@H]21` [Compound 1-1, 3-[(5aR,8S,9aR)-2-Amino-6-propyl-5,5a,6,7,8,9,9a,10-octahydropyrido[2,3-g]quinazolin-8-yl]-1-[2-(dimethylamino)ethyl]-1-ethylurea], the EC50 in test [1] was 64 nM. The concentration for a half-maximal effect (EC50) in test [2] is above 10 µM. In test [3], the “Total number of rotations” value was 5038.5 and the Duration turned out to be 541.3 minuets.
For `CCCN(CCN(C)C)C(=O)N[C@H]1C[C@@H]2Cc3nc(N)ncc3C[C@H]2N(CCC)C1` [Compound 1-2, 3-[(5aR,8S,9aR)-2-amino-6-propyl-5,5a,6,7,8,9,9a,10-octahydropyrido[2,3-g]quinazolin-8-yl]-1-[2-(dimethylamino)ethyl]-1-propylurea], the concentration giving a half-maximal response (EC50) was 252 nM in test [1] and above 10 µM in test [2]. Moreover, in test [3], the “Total number of rotations” value was determined as 2580.0. Moreover, in test [3], the Duration worked out at 307.5 minuets.
The like results for `CCCN1C[C@@H](NC(=O)N(C)CCN(CC)CC)C[C@@H]2Cc3nc(N)ncc3C[C@H]21` [Compound 1-4, 3-[(5aR,8S,9aR)-2-amino-6-propyl-5,5a,6,7,8,9,9a,10-octahydropyrido[2,3-g]quinazolin-8-yl]-1-[2-(diethylamino)ethyl]-1-methylurea] were, in that order, 111 nM, above 10 µM, 3975.0 and 538.8 minuets.

(Values after patent US9585885B2, “Substituted pyrido[2,3-g]quinazolines as dopamine D2 receptor agonists” (KISSEI PHARMACEUTICAL CO., LTD., priority 2012, dated 2017).)
